Measurements: patent publication US8562949B2, “Radiolabeled dihydrotetrabenazine derivatives and their use as imaging agents” (The Trustees of the University of Pennsylvania, priority 2006, dated 2013)
Read-outs that look alike come from different tables or passages of the source. Each block holds one compound with its values, some of them ahead of it.

How the values were obtained:
[1] = molecular target: VMAT2 (Mus musculus, UniProt Q8BRU6); experiment: Saturation binding of 18F ligands in mouse striatal homogenates; set-up: The basal forebrain regions of rat and mouse brains were then dissected; from tissue; host or cells: mouse striatal homogenate; mouse brain coronal sections; details: estimated based on S.A.=2000 Ci/mmole
Sequence of VMAT2 (Q8BRU6 whole entry): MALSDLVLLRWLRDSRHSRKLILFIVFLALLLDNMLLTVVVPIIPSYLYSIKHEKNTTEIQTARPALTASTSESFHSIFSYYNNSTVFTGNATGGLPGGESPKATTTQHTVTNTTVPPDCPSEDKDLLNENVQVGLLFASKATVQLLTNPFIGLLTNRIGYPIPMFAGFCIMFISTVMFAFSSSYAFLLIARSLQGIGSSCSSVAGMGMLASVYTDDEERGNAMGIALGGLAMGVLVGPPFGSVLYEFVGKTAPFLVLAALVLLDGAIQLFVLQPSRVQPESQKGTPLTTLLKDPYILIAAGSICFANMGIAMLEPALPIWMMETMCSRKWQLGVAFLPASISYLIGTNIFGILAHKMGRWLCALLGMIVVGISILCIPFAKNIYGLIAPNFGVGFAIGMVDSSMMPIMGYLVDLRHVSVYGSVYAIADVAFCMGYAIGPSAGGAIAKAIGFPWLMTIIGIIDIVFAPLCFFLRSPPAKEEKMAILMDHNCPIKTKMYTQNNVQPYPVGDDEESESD
Description: The basal forebrain regions of rat and mouse brains were then dissected. The tissue homogenates were prepared in 50 mM Hepes, pH 7.5 and 0.3 M sucrose. The specific binding of ^3H or ^18F ligands were determined following the procedures described (Scherman D, Raisman R, Ploska A, Agid Y., [^3H]Dihydrotetrabenazine, a new in vitro monoaminergic probe for human brain, J. Neurochem., 1988:50:1131-36). Total volume of reaction for the assay was 0.2 ml. […] In saturation experiments, increasing concentrations of labeled ligand […] in 50 μl buffer were incubated with 100 μl of homogenates (100-250 μg). Incubation was carried out routinely at room temperature for 90 min. The samples were then filtered through glass fiber filters No. 25 (Schleicher and Schuell, Keene, N.H.) and the bound radioactivity was determined for ^18F in a gamma counter (Packard 5000) with 70% efficiency. Filters containing bound ^3H ligand were dissolved in 7 ml Ecolite(+) overnight and the radioactivity was counted next day in the scintillation counter (Beckman) with 65% counting efficiency. […] Nonspecific binding was determined in the presence of 10 μM tetrabenazine. Both saturation and competition experiments were analyzed using the nonlinear least-square curve fitting program LIGAND. […]

[2] = Biodistribution in normal rats; format: in vivo; details: IV
Description: While under isoflurane anesthesia, 0.15 mL of a 0.1% bovine serum albumin solution containing [^18F]tracers (10-20 μCi) were injected directly into the tail vein of ICR mice (22-25 g, male) The mice (n=3 for each time point) were sacrificed by cervical dislocation at indicated time points post injection. The organs of interest were removed and weighed, and the radioactivity was counted with an automatic gamma counter. The percentage dose per organ was calculated by a comparison of the tissue counts to suitably diluted aliquots of the injected material. Total activities of blood were calculated under the assumption that they were 7% of the total body weight. The % dose/g of samples was calculated by comparing the sample counts with the count of the diluted initial dose.
The ability of (+)-6b to target the pancreas was shown in normal rats. Using the methods described above under Example 6, the biodistribution of (+)-6b after IV injection in twelve normal rats was measured. For the organs studied, the pancreas had the highest % dose/gram within 30 minutes after injection. Also shown are data indicating distribution in the striatum, which is another area rich in VMAT-2 receptors.

[3] = Blocking of pancreatic signal by DTBZ in rats; format: in vivo; details: rat
[4] = system: T1, VMAT-2; experiment: Blocking of pancreatic signal by DTBZ in rats; format: in vivo; details: rat
T1 construct: from tissue; host or cells: living rats; organs dissected after iv injection

[5] = Metabolic stability in mouse brain; format: in vivo, mice; details: mouse striatum, 30 minutes post-injection, ethyl acetate extraction/TLC
Description: Two mice were injected with 200 μCi [^18F]FP-(+)-DTBZ and sacrificed at 30 minutes post-injection. The brains were removed and the striatal regions were dissected out. The striatal homogenates (prepared in PBS, 10% w/v) were extracted with 0.5 mL of ethyl acetate in the presence of a small amount of carrier (10 μg of […]). Extraction was repeated three times and the ethyl acetate layers and the buffer layers were counted separately to determine the percent extracted. […] A control sample ([^18F]FP-(±)-DTBZ mixed with normal mouse striatal homogenates in situ) was carried out in parallel for comparison.

SMILES: COc1cc2c(cc1OCCC[18F])CCN1CC(CC(C)C)C(O)CC21 (racemic) [[^18F]6b]
Kd [1]: 0.48 nM

Biodistribution Blood ([2]; 2 min): 0.26 ± 0.03 % dose/g | Biodistribution Brain ([2]; 2 min): 0.71 ± 0.05 % dose/g | Biodistribution Cerebellum ([2]; 2 min): 0.63 ± 0.03 % dose/g | Biodistribution Cortex ([2]; 2 min): 0.65 ± 0.02 % dose/g | Biodistribution Heart ([2]; 2 min): 0.71 ± 0.07 % dose/g | Biodistribution Hippocampus ([2]; 2 min): 0.68 ± 0.07 % dose/g | Biodistribution Kidney ([2]; 2 min): 2.10 ± 0.17 % dose/g | Biodistribution Liver ([2]; 2 min): 3.53 ± 0.56 % dose/g | Biodistribution Lung ([2]; 2 min): 0.94 ± 0.04 % dose/g | Biodistribution Muscle ([2]; 2 min): 0.14 ± 0.03 % dose/g | Biodistribution Pancreas ([2]; 2 min): 2.51 ± 0.22 % dose/g | Biodistribution Skin ([2]; 2 min): 0.23 ± 0.05 % dose/g | Biodistribution Spleen ([2]; 2 min): 1.46 ± 0.15 % dose/g | Biodistribution Striatum ([2]; 2 min): 1.52 ± 0.20 % dose/g | Biodistribution Blood ([2]; 30 min): 0.23 ± 0.06 % dose/g | Biodistribution Brain ([2]; 30 min): 0.62 ± 0.08 % dose/g | Biodistribution Cerebellum ([2]; 30 min): 0.40 ± 0.04 % dose/g | Biodistribution Cortex ([2]; 30 min): 0.44 ± 0.06 % dose/g | Biodistribution Heart ([2]; 30 min): 0.41 ± 0.03 % dose/g | Biodistribution Hippocampus ([2]; 30 min): 0.61 ± 0.12 % dose/g | Biodistribution Kidney ([2]; 30 min): 1.06 ± 0.06 % dose/g | Biodistribution Liver ([2]; 30 min): 2.82 ± 0.24 % dose/g | Biodistribution Lung ([2]; 30 min): 0.69 ± 0.03 % dose/g | Biodistribution Muscle ([2]; 30 min): 0.17 ± 0.02 % dose/g | Biodistribution Pancreas ([2]; 30 min): 5.50 ± 0.97 % dose/g | Biodistribution Skin ([2]; 30 min): 0.28 ± 0.01 % dose/g | Biodistribution Spleen ([2]; 30 min): 1.03 ± 0.18 % dose/g | Biodistribution Striatum ([2]; 30 min): 2.25 ± 0.48 % dose/g | Biodistribution Blood ([2]; 60 min): 0.18 ± 0.02 % dose/g | Biodistribution Brain ([2]; 60 min): 0.42 ± 0.04 % dose/g | Biodistribution Cerebellum ([2]; 60 min): 0.28 ± 0.04 % dose/g | Biodistribution Cortex ([2]; 60 min): 0.27 ± 0.07 % dose/g | Biodistribution Heart ([2]; 60 min): 0.30 ± 0.10 % dose/g | Biodistribution Hippocampus ([2]; 60 min): 0.36 ± 0.08 % dose/g | Biodistribution Kidney ([2]; 60 min): 0.84 ± 0.09 % dose/g | Biodistribution Liver ([2]; 60 min): 2.47 ± 0.30 % dose/g | Biodistribution Lung ([2]; 60 min): 0.54 ± 0.14 % dose/g | Biodistribution Muscle ([2]; 60 min): 0.13 ± 0.01 % dose/g | Biodistribution Pancreas ([2]; 60 min): 4.98 ± 0.24 % dose/g | Biodistribution Skin ([2]; 60 min): 0.23 ± 0.04 % dose/g | Biodistribution Spleen ([2]; 60 min): 0.83 ± 0.18 % dose/g | Biodistribution Striatum ([2]; 60 min): 1.85 ± 0.26 % dose/g | Biodistribution Blood ([2]; 120 min): 0.12 ± 0.03 % dose/g | Biodistribution Brain ([2]; 120 min): 0.35 ± 0.02 % dose/g | Biodistribution Cerebellum ([2]; 120 min): 0.20 ± 0.01 % dose/g | Biodistribution Cortex ([2]; 120 min): 0.20 ± 0.06 % dose/g | Biodistribution Heart ([2]; 120 min): 0.22 ± 0.01 % dose/g | Biodistribution Hippocampus ([2]; 120 min): 0.23 ± 0.03 % dose/g | Biodistribution Kidney ([2]; 120 min): 0.55 ± 0.06 % dose/g | Biodistribution Liver ([2]; 120 min): 1.47 ± 0.13 % dose/g | Biodistribution Lung ([2]; 120 min): 0.35 ± 0.03 % dose/g | Biodistribution Muscle ([2]; 120 min): 0.10 ± 0.01 % dose/g | Biodistribution Pancreas ([2]; 120 min): 2.76 ± 0.61 % dose/g | Biodistribution Skin ([2]; 120 min): 0.16 ± 0.02 % dose/g | Biodistribution Spleen ([2]; 120 min): 0.48 ± 0.04 % dose/g | Biodistribution Striatum ([2]; 120 min): 1.42 ± 0.54 % dose/g | tissue uptake at 30 min ([3]; blood, 30 min Blocking, DTBZ 3.8 mg/kg pretreatment, read-out: Blood): 0.32 ± 0.04 %ID/g | tissue uptake at 30 min ([3]; blood, 30 min Control, read-out: Blood): 0.2 ± 0.01 %ID/g | tissue uptake at 30 min ([3]; cortex, 30 min Blocking, DTBZ 3.8 mg/kg pretreatment, read-out: Regional Brain Distribution Cortex): 0.26 ± 0.05 %ID/g | tissue uptake at 30 min ([3]; cortex, 30 min Control, read-out: Regional Brain Distribution Cortex): 0.36 %ID/g | tissue uptake at 30 min ([3]; hippocampus, 30 min Blocking, DTBZ 3.8 mg/kg pretreatment, read-out: Regional Brain Distribution Hippocampus): 0.25 ± 0.03 %ID/g | tissue uptake at 30 min ([3]; hippocampus, 30 min Control, read-out: Regional Brain Distribution Hippocampus): 0.54 ± 0.03 %ID/g | tissue uptake at 30 min ([3]; hypothalamus, 30 min Blocking, DTBZ 3.8 mg/kg pretreatment, read-out: Regional Brain Distribution Hypothalamus): 0.25 ± 0.04 %ID/g | tissue uptake at 30 min ([3]; hypothalamus, 30 min Control, read-out: Regional Brain Distribution Hypothalamus): 1.2 ± 0.07 %ID/g | tissue uptake at 30 min ([3]; striatum, 30 min Blocking, DTBZ 3.8 mg/kg pretreatment, read-out: Regional Brain Distribution Striatum): 0.27 ± 0.02 %ID/g | tissue uptake at 30 min ([3]; striatum, 30 min Control, read-out: Regional Brain Distribution Striatum): 1.94 ± 0.03 %ID/g | tissue uptake at 30 min ([4]; cerebellum, 30 min Blocking, DTBZ 3.8 mg/kg pretreatment, read-out: Regional Brain Distribution Cerebellum): 0.25 ± 0.03 %ID/g | tissue uptake at 30 min ([4]; cerebellum, 30 min Control, read-out: Regional Brain Distribution Cerebellum): 0.36 %ID/g | tissue uptake at 30 min ([4]; pancreas, 30 min Blocking, DTBZ 3.8 mg/kg pretreatment, read-out: Pancreas): 3.1 ± 0.3 %ID/g | tissue uptake at 30 min ([4]; pancreas, 30 min Control, read-out: Pancreas): 4.39 ± 0.64 %ID/g | degradation [5]: less than 5%
SMILES: COc1cc2c(cc1OCCC[18F])CCN1C[C@@H](CC(C)C)[C@H](O)C[C@H]21 [[^18F]-(+)-6b]
